Entries after “also recorded” stand apart in the source; their conditions may differ.
Columns and labels:
[1] = system: non-alcoholic steatohepatitis (NASH) in male C57BL/6 mice; assay: Non-alcoholic steatohepatitis (NASH) model, Streptozotocin plus 60% kcal fat diet; format: in vivo; conditions: for liver to body weight ratio: disease control 0.066; for decrease of percentage collagen proportion area (CPA), Masson's trichrome staining, liver: vs disease control
Procedure: Timed pregnant mice (n=44) were selected for the study. The delivered pups were subcutaneously injected on post-natal day 2 with 200 μg of Streptozotocin and were allowed to remain with the mother until they reached the weanling age. After weanling, the male pups were selected and fed with 60% kcal fat diet (Research Diet-D12492) for next 6 weeks. All the animals were observed once daily for clinical signs and twice daily for morbidity and mortality.
Mice were dosed with vehicle, Compound 17 (at 3 mg/kg or 10 mg/kg) and 10 mg/kg of reference compound (either Obeticholic acid (OCA) or Elafibranor (ELA, GFT505)) once daily before the start of dark cycle (6:00 PM) from day 0 to 21. Animal body weight measurements were made daily for the complete duration of the experiment. Animals were dosed for 21 days (from week 9 to 12) with the test and reference compounds. Blood glucose was estimated before the treatment start, day 11 and on the termination day. Histopathology analysis including the H&E staining, Masson's trichrome staining and the Oil-red-O (ORO) staining was performed for the liver tissues.

[2] = system: Bleomycin-induced idiopathic pulmonary fibrosis model in male C57BL/6 mice; assay: Bleomycin-induced idiopathic pulmonary fibrosis model; format: in vivo; conditions: 10 mg/kg, i.p., once daily from day 14 to 28
Procedure: Compound 17 was made-up fresh every 4 days. A required amount of the test compound was weighed in a glass vial and the purity factor was calculated. A stock solution of 1 mg/ml (10 mg/kg) was made in distilled water (pH 8) and the subsequent 3 and 1 mg/kg doses (concentrations) were obtained by serial dilution of the 1 mg/ml stock solution. A clear and transparent solution was observed. Animals were dosed with Compound 17 at 1 mg/kg, 3 mg/kg and 10 mg/kg, i.p (intraperitoneal), once daily from day 14 to 28.
Pirfenidone was weighed in a glass vial and suspended in 0.5% methyl cellulose to obtain a 10 mg/ml formulation. A clear homogenous suspension was observed. Animals were dosed with Pirfenidone at 100 mg/kg, p.o., b.i.d., from day 14 to 28.

`NC(=O)CCn1c2ccc(-n3ccnc3)cc2c2ccc(CCC(=O)O)cc21` [Compound 17, 3-(imidazol-1(H)-yl)-7-(2-carboxylethyl)-9(H)-(2-aminocarbonylethyl) carbazole] was tested, and the “ORO (Oil-Red-O) steatosis score relative to disease control” value ([1]; 3 mg/kg) was −28%, the “change of liver to body weight ratio compared with disease control” value ([1]; 3 mg/kg) was −18.5% and the “steatosis and lobular inflammation in the liver as indicated by the NAS” value ([1]; 3 mg/kg and 10 mg/kg) was “markedly reduced steatosis and lobular inflammation in the liver”. For the same compound, the “weight put on relative to naïve controls at day 21” value ([1]; 3 mg/kg) was “+1.3%”, the “liver to body weight ratio” value ([1]; 3 mg/kg) was 0.054 and the “decrease of percentage collagen proportion area (CPA), Masson's trichrome staining, liver” value ([1]; 3 mg/kg) was 29%. For the same compound, the “ORO (Oil-Red-O) steatosis score relative to disease control” value ([1]; 10 mg/kg) was −52%, the “change of liver to body weight ratio compared with disease control” value ([1]; 10 mg/kg) was −16.2% and the “reduction of plasma glucose relative to disease control” value ([1]; 10 mg/kg, i.p., p<0.01) was 17.4%. The “weight put on relative to naïve controls at day 21” value ([1]; 10 mg/kg) was −43%, the “liver to body weight ratio” value ([1]; 10 mg/kg) was 0.055 and the “decrease of percentage collagen proportion area (CPA), Masson's trichrome staining, liver” value ([1]; 10 mg/kg) was 20%. For the same compound, the “body weight increase compared with disease controls” value ([1]; 3 and 10 mg/kg, 21 days of treatment) was “both less than disease controls”, the “NAS (in words)” value ([1]; 3 and 10 mg/kg, p<0.05) was “significantly decreased the NAS” and the “change in body weight (g), Mean” value ([1]; Day 1, 3 mg/kg once daily) was 0.00 g. The “change in body weight (g), Mean” value ([1]; Day 1, 10 mg/kg once daily) was 0.00 g, the “change in body weight (g), Mean” value ([1]; Day 2, 3 mg/kg once daily) was 0.54 g and the “change in body weight (g), Mean” value ([1]; Day 2, 10 mg/kg once daily) was 0.65 g. The “change in body weight (g), Mean” value ([1]; Day 3, 3 mg/kg once daily) was 0.85 g, the “change in body weight (g), Mean” value ([1]; Day 3, 10 mg/kg once daily) was 0.96 g and the “change in body weight (g), Mean” value ([1]; Day 4, 3 mg/kg once daily) was 0.48 g. The “change in body weight (g), Mean” value ([1]; Day 4, 10 mg/kg once daily) was 0.76 g, the “change in body weight (g), Mean” value ([1]; Day 5, 3 mg/kg once daily) was 0.35 g and the “change in body weight (g), Mean” value ([1]; Day 5, 10 mg/kg once daily) was 0.81 g. The “change in body weight (g), Mean” value ([1]; Day 6, 3 mg/kg once daily) was 0.68 g, the “change in body weight (g), Mean” value ([1]; Day 6, 10 mg/kg once daily) was 0.84 g and the “change in body weight (g), Mean” value ([1]; Day 7, 3 mg/kg once daily) was 0.54 g. For the same compound, the “change in body weight (g), Mean” value ([1]; Day 7, 10 mg/kg once daily) was 0.19 g, the “change in body weight (g), Mean” value ([1]; Day 8, 3 mg/kg once daily) was 0.21 g and the “change in body weight (g), Mean” value ([1]; Day 8, 10 mg/kg once daily) was 0.78 g. The “change in body weight (g), Mean” value ([1]; Day 9, 3 mg/kg once daily) was 0.53 g, the “change in body weight (g), Mean” value ([1]; Day 9, 10 mg/kg once daily) was 0.80 g and the “change in body weight (g), Mean” value ([1]; Day 10, 3 mg/kg once daily) was 0.56 g. The “change in body weight (g), Mean” value ([1]; Day 10, 10 mg/kg once daily) was 0.89 g, the “change in body weight (g), Mean” value ([1]; Day 11, 3 mg/kg once daily) was 0.40 g and the “change in body weight (g), Mean” value ([1]; Day 11, 10 mg/kg once daily) was 0.91 g. For the same compound, the “change in body weight (g), Mean” value ([1]; Day 12, 3 mg/kg once daily) was -0.49 g, the “change in body weight (g), Mean” value ([1]; Day 12, 10 mg/kg once daily) was -0.08 g and the “change in body weight (g), Mean” value ([1]; Day 13, 3 mg/kg once daily) was 0.81 g. For the same compound, the “change in body weight (g), Mean” value ([1]; Day 13, 10 mg/kg once daily) was 0.74 g, the “change in body weight (g), Mean” value ([1]; Day 14, 3 mg/kg once daily) was 1.10 g and the “change in body weight (g), Mean” value ([1]; Day 14, 10 mg/kg once daily) was 0.71 g. The “change in body weight (g), Mean” value ([1]; Day 15, 3 mg/kg once daily) was 0.84 g, the “change in body weight (g), Mean” value ([1]; Day 15, 10 mg/kg once daily) was 1.01 g and the “change in body weight (g), Mean” value ([1]; Day 16, 3 mg/kg once daily) was 1.32 g. For the same compound, the “change in body weight (g), Mean” value ([1]; Day 16, 10 mg/kg once daily) was 1.09 g, the “change in body weight (g), Mean” value ([1]; Day 17, 3 mg/kg once daily) was 1.38 g and the “change in body weight (g), Mean” value ([1]; Day 17, 10 mg/kg once daily) was 1.13 g. For the same compound, the “change in body weight (g), Mean” value ([1]; Day 18, 3 mg/kg once daily) was 1.11 g, the “change in body weight (g), Mean” value ([1]; Day 18, 10 mg/kg once daily) was 0.97 g and the “change in body weight (g), Mean” value ([1]; Day 19, 3 mg/kg once daily) was 1.22 g. The “change in body weight (g), Mean” value ([1]; Day 19, 10 mg/kg once daily) was 1.16 g, the “change in body weight (g), Mean” value ([1]; Day 20, 3 mg/kg once daily) was 1.56 g and the “change in body weight (g), Mean” value ([1]; Day 20, 10 mg/kg once daily) was 0.80 g. For the same compound, the “change in body weight (g), Mean” value ([1]; Day 21, 3 mg/kg once daily) was 1.57 g, the “change in body weight (g), Mean” value ([1]; Day 21, 10 mg/kg once daily) was 0.89 g and the “pulmonary fibrosis (Ashcroft score and percentage collagen proportionate area) vs disease control” value [2] was “notable mitigation of pulmonary fibrosis; also recorded: decreased lung fibrosis”.
